# Source: the Kinase Knowledgebase extract (Sharma et al. 2016)
# pIC50: −log10 of the molar value.
# What was measured:
# MAPK14 (human) [1] = target: MAPK14 (human) (UniProt Q16539); experiment: Inhibition of MAPK14 Kinase Activity by PHAS-I Assay; conditions: for inhibition: concentration not given here
# MAPK14 (human) [2] = target: MAPK14 (human) (UniProt Q16539); experiment: Inhibition of LPS Stimulated TNF Production by U937 Cells; conditions: for inhibition: concentration not given here
# MAPK14 (human), sequence (Q16539 whole entry, looked up): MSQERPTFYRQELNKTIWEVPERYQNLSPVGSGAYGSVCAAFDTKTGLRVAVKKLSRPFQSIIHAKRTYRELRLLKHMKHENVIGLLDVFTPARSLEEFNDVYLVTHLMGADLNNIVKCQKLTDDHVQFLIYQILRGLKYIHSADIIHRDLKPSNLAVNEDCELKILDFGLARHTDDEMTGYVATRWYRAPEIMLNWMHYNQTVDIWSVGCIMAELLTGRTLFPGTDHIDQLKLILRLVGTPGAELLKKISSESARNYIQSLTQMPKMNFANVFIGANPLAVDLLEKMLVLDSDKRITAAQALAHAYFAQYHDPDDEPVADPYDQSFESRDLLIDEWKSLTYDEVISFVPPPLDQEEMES
inhibition (MAPK14 (human) [1]) [%],SMILES,also measured
84,CC(C)S(=O)(=O)NCCCc1[nH]nc(-c2ccc(F)cc2)c1-c1ccncc1,–
76,Cc1c(-c2ccncc2)c(-c2ccc(F)cc2)nn1CC(=O)NC1CCSc2ccccc21 (configuration not stated),–
75,COC(=O)C(Cc1ccc([N+](=O)[O-])cc1)NC(=O)Cn1nc(-c2ccc(F)cc2)c(-c2ccncc2)c1C (configuration not stated),–
38,CC[C@H](C)[C@H](NC(=O)Cn1nc(-c2ccc(F)cc2)c(-c2ccncc2)c1C)C(=O)OC,–
90,CN(C)C(=O)NCCCc1[nH]nc(-c2ccc(F)cc2)c1-c1ccncc1,–
–,O=C(NCc1[nH]nc(-c2ccc(F)cc2)c1-c1ccncc1)c1cc(Cl)cc(Cl)c1,pIC50 (MAPK14 (human) [1]): 5.57
82,Cc1c(-c2ccncc2)c(-c2ccc(F)cc2)nn1CC(=O)NC1CCCCCC1,–
70,O=C(NCCCc1[nH]nc(-c2ccc(F)cc2)c1-c1ccncc1)c1cccc(Br)c1,–
–,CCN(CC)C(=O)N[C@@H](Cc1ccccc1)c1[nH]nc(-c2ccc(F)cc2)c1-c1ccncc1,pIC50 (MAPK14 (human) [1]): 5.66
90,Cc1c(-c2ccncc2)c(-c2ccc(F)cc2)nn1CC(=O)Nc1cc([N+](=O)[O-])cc([N+](=O)[O-])c1,–
77,O=S(=O)(NCCCc1[nH]nc(-c2ccc(F)cc2)c1-c1ccncc1)c1ccccc1F,–
44,Cc1c(-c2ccncc2)c(-c2ccc(F)cc2)nn1CC(=O)NC(Cc1ccccc1)c1ccccc1 (configuration not stated),–
–,COc1ccc(-c2[nH]nc(C)c2-c2ccncc2)cc1Cl,pIC50 (MAPK14 (human) [1]): 7.00
–,CCCc1n[nH]c(-c2cccc([N+](=O)[O-])c2)c1-c1ccncc1,pIC50 (MAPK14 (human) [1]): 4.92
69,Cc1c(-c2ccncc2)c(-c2ccc(F)cc2)nn1CC(=O)NC1CCSC1=O (configuration not stated),–
87,CC(C)(C)C(=O)NCCCc1[nH]nc(-c2ccc(F)cc2)c1-c1ccncc1,–
82,Cc1c(-c2ccncc2)c(-c2ccc(F)cc2)nn1CC(=O)Nc1ccc(OCc2ccccc2)cc1,–
–,CC(C)(N)Cc1[nH]nc(-c2ccc(F)cc2)c1-c1ccncc1,pIC50 (MAPK14 (human) [1]): 6.96
82,O=C(NCCCc1[nH]nc(-c2ccc(F)cc2)c1-c1ccncc1)NCc1ccccc1,–
74,COc1ccc(S(=O)(=O)NCCCc2[nH]nc(-c3ccc(F)cc3)c2-c2ccncc2)cc1OC,–
94,Cc1c(-c2ccncc2)c(-c2ccc(F)cc2)nn1CC(=O)Nc1ccc(Cl)nc1,–
94,CCOC(=O)NCCCc1[nH]nc(-c2ccc(F)cc2)c1-c1ccncc1,–
69,Cc1c(-c2ccncc2)c(-c2ccc(F)cc2)nn1CC(=O)NC1Cc2ccccc2C1,–

inhibition (MAPK14 (human) [1]) [%],SMILES,also measured
89,CCCCCCCOc1ccc(NC(=O)Cn2nc(-c3ccc(F)cc3)c(-c3ccncc3)c2C)cc1,–
77,CCCCNS(=O)(=O)c1cccc(NC(=O)Cn2nc(-c3ccc(F)cc3)c(-c3ccncc3)c2C)c1,–
87,Cc1c(-c2ccncc2)c(-c2ccc(F)cc2)nn1CC(=O)Nc1ccc(C2CCCCC2)cc1,–
–,COc1ccccc1C(=O)N1CCC(c2[nH]nc(-c3ccc(F)cc3)c2-c2ccncc2)CC1,pIC50 (MAPK14 (human) [1]): > 7.00
49,COc1ccc(NC(=O)NCCc2[nH]nc(-c3ccc(F)cc3)c2-c2ccncc2)c(OC)c1,–
64,O=C(NCCCc1[nH]nc(-c2ccc(F)cc2)c1-c1ccncc1)c1ccc(F)cc1,–
86,COc1ccc2nc(NC(=O)Cn3nc(-c4ccc(F)cc4)c(-c4ccncc4)c3C)sc2c1,–
86,Cc1ccc(C(=O)NCCCc2[nH]nc(-c3ccc(F)cc3)c2-c2ccncc2)cc1,–
82,CSc1ccccc1NC(=O)Cn1nc(-c2ccc(F)cc2)c(-c2ccncc2)c1C,–
82,O=C(NCCCc1[nH]nc(-c2ccc(F)cc2)c1-c1ccncc1)NCCc1ccccc1,–
87,CCOC(=O)c1cc(-c2ccc(NC(=O)Cn3nc(-c4ccc(F)cc4)c(-c4ccncc4)c3C)cc2)oc1C,–
69,O=C(NCCCc1[nH]nc(-c2ccc(F)cc2)c1-c1ccncc1)c1ccccn1,–
67,Cc1c(-c2ccncc2)c(-c2ccc(F)cc2)nn1CC(=O)Nc1ccc(CSc2ccc(Cl)cc2)cc1,–
79,Cc1c(-c2ccncc2)c(-c2ccc(F)cc2)nn1CC(=O)Nc1cc(C(F)(F)F)cc(C(F)(F)F)c1,–
81,Cc1c(-c2ccncc2)c(-c2ccc(F)cc2)nn1CC(=O)NC1CCC1,–
86,O=C(NCCCc1[nH]nc(-c2ccc(F)cc2)c1-c1ccncc1)N1CCCC1,–
46,CCN(Cc1c(F)cccc1Cl)C(=O)Cn1nc(-c2ccc(F)cc2)c(-c2ccncc2)c1C,–
88,O=C(NCCCc1[nH]nc(-c2ccc(F)cc2)c1-c1ccncc1)Nc1ccc(F)cc1,–
34,CCOC(=O)CN(Cc1ccccn1)C(=O)Cn1nc(-c2ccc(F)cc2)c(-c2ccncc2)c1C,–
43,Cc1c(-c2ccncc2)c(-c2ccc(F)cc2)nn1CC(=O)N(CCc1ccccc1)CCc1ccccn1,–
77,O=C(NCCCc1[nH]nc(-c2ccc(F)cc2)c1-c1ccncc1)c1ccncc1,–
73,Cc1c(-c2ccncc2)c(-c2ccc(F)cc2)nn1CC(=O)NC1CCN(Cc2ccccc2)C1 (configuration not stated),–
72,O=C(NCCCc1[nH]nc(-c2ccc(F)cc2)c1-c1ccncc1)c1cccnc1,–

inhibition (MAPK14 (human) [1]) [%],SMILES,also measured
86,Cc1c(-c2ccncc2)c(-c2ccc(F)cc2)nn1CC(=O)Nc1ccccc1F,–
89,Cc1c(-c2ccncc2)c(-c2ccc(F)cc2)nn1CC(=O)Nc1c(Cl)cccc1Cl,–
47,COC(=O)[C@H](CC(C)C)NC(=O)Cn1nc(-c2ccc(F)cc2)c(-c2ccncc2)c1C,–
95,CCS(=O)(=O)NCCCc1[nH]nc(-c2ccc(F)cc2)c1-c1ccncc1,–
86,Cc1c(-c2ccncc2)c(-c2ccc(F)cc2)nn1CC(=O)Nc1ccccc1Oc1ccc(Cl)cc1,–
86,O=C(NCCCc1[nH]nc(-c2ccc(F)cc2)c1-c1ccncc1)Nc1ccccc1F,–
47,CCN(CC)CCN(CCN(CC)CC)C(=O)Cn1nc(-c2ccc(F)cc2)c(-c2ccncc2)c1C,–
70,Cc1c(-c2ccncc2)c(-c2ccc(F)cc2)nn1CC(=O)N1CCOCC1,–
–,CNCCCNC(=O)CSc1[nH]nc(-c2ccc(Cl)cc2)c1-c1ccncc1,pIC50 (MAPK14 (human) [1]): 5.78
89,CC(C)OC(=O)NCCCc1[nH]nc(-c2ccc(F)cc2)c1-c1ccncc1,–
32,Cc1c(-c2ccncc2)c(-c2ccc(F)cc2)nn1CC(=O)N(C)CCc1ccccc1,–
85,CC(C)OC(=O)NCCc1[nH]nc(-c2ccc(F)cc2)c1-c1ccncc1,–
76,COC(=O)[C@H](COCc1ccccc1)NC(=O)Cn1nc(-c2ccc(F)cc2)c(-c2ccncc2)c1C,–
86,Cc1c(-c2ccncc2)c(-c2ccc(F)cc2)nn1CC(=O)Nc1ccccc1C(F)(F)F,–
75,CC(C)C(=O)NCCc1[nH]nc(-c2ccc(F)cc2)c1-c1ccncc1,–
78,CCCOC(=O)NCCc1[nH]nc(-c2ccc(F)cc2)c1-c1ccncc1,–
–,Clc1ccc(-c2n[nH]c(N3CCSCC3)c2-c2ccncc2)cc1,pIC50 (MAPK14 (human) [1]): 6.11
75,CCCCC(C)NC(=O)Cn1nc(-c2ccc(F)cc2)c(-c2ccncc2)c1C (configuration not stated),–
–,COCC(=O)N[C@H](C)c1[nH]nc(-c2ccc(F)cc2)c1-c1ccncc1,inhibition (MAPK14 (human) [2]): 46%
–,C[C@H](NS(=O)(=O)c1ccc(CNC(=O)c2ccccc2)s1)c1[nH]nc(-c2ccc(F)cc2)c1-c1ccncc1,inhibition (MAPK14 (human) [2]): 83%
–,Cc1ccccc1C(=O)N[C@@H](C)c1[nH]nc(-c2ccc(F)cc2)c1-c1ccncc1,inhibition (MAPK14 (human) [2]): 34%
–,O=C(NCc1[nH]nc(-c2ccc(F)cc2)c1-c1ccncc1)C(F)(F)F,inhibition (MAPK14 (human) [2]): 67%
–,CCNC(=O)N[C@@H](CCC(=O)NC)c1[nH]nc(-c2ccc(F)cc2)c1-c1ccncc1,pIC50 (MAPK14 (human) [2]): < 6.00

inhibition (MAPK14 (human) [1]) [%],SMILES,also measured
–,C[C@@H](NC(=O)N(C)c1ccccc1)c1[nH]nc(-c2ccc(F)cc2)c1-c1ccncc1,inhibition (MAPK14 (human) [2]): 30%
–,C[C@H](NC(=O)N[C@H](C)c1[nH]nc(-c2ccc(F)cc2)c1-c1ccncc1)c1ccccc1,inhibition (MAPK14 (human) [2]): 25%
–,Cc1c(-c2ccncc2)c(-c2ccc(F)cc2)nn1CC(=O)NCCc1ccc(Oc2ccccc2)cc1,pIC50 (MAPK14 (human) [2]): 6.11
–,O=S(=O)(NCc1[nH]nc(-c2ccc(F)cc2)c1-c1ccncc1)c1ccc(S(=O)(=O)c2ccccc2)s1,inhibition (MAPK14 (human) [2]): 64%
–,C[C@@H](NS(=O)(=O)c1cccc(Cl)c1)c1[nH]nc(-c2ccc(F)cc2)c1-c1ccncc1,inhibition (MAPK14 (human) [2]): 97%
–,C[C@@H](NC(=O)c1cc(F)cc(F)c1)c1[nH]nc(-c2ccc(F)cc2)c1-c1ccncc1,inhibition (MAPK14 (human) [2]): 48%
–,C[C@@H](NC(=O)c1ccncc1)c1[nH]nc(-c2ccc(F)cc2)c1-c1ccncc1,inhibition (MAPK14 (human) [2]): 36%
–,Cc1cc(C)c(C(=O)N[C@@H](C)c2[nH]nc(-c3ccc(F)cc3)c2-c2ccncc2)c(C)c1,inhibition (MAPK14 (human) [2]): 39%
–,O=S(=O)(c1ccc(F)cc1)N1CCC(c2[nH]nc(-c3ccc(F)cc3)c2-c2ccncc2)CC1,inhibition (MAPK14 (human) [2]): 28%
–,O=C(NCc1[nH]nc(-c2ccc(F)cc2)c1-c1ccncc1)c1cccs1,pIC50 (MAPK14 (human) [2]): < 6.00
–,C[C@H](NS(=O)(=O)/C=C/c1ccccc1)c1[nH]nc(-c2ccc(F)cc2)c1-c1ccncc1,pIC50 (MAPK14 (human) [2]): 6.23
–,O=C(NCCCc1[nH]nc(-c2ccc(F)cc2)c1-c1ccncc1)NCCc1c[nH]cn1,pIC50 (MAPK14 (human) [2]): < 6.00
–,C[C@@H](NC(=O)N[C@H](C)c1[nH]nc(-c2ccc(F)cc2)c1-c1ccncc1)c1ccccc1,inhibition (MAPK14 (human) [2]): 28%
–,O=S(=O)(NCc1[nH]nc(-c2ccc(F)cc2)c1-c1ccncc1)c1ccc(F)c(Cl)c1,inhibition (MAPK14 (human) [2]): 78%
–,O=C(NCc1[nH]nc(-c2ccc(F)cc2)c1-c1ccncc1)c1cc(F)cc(F)c1,inhibition (MAPK14 (human) [2]): 34%
–,CC(C)NC(=O)N[C@@H](C)c1[nH]nc(-c2ccc(F)cc2)c1-c1ccncc1,inhibition (MAPK14 (human) [2]): 47%
–,C[C@H](NS(=O)(=O)c1cccc2nonc12)c1[nH]nc(-c2ccc(F)cc2)c1-c1ccncc1,inhibition (MAPK14 (human) [2]): 78%
–,O=C(NCCCc1[nH]nc(-c2ccc(F)cc2)c1-c1ccncc1)NCCCn1ccnc1,pIC50 (MAPK14 (human) [2]): < 6.00
–,C[C@@H](NC(=O)c1cc(F)c(F)cc1F)c1[nH]nc(-c2ccc(F)cc2)c1-c1ccncc1,inhibition (MAPK14 (human) [2]): 52%
–,CCCOC(=O)N[C@H](C)c1[nH]nc(-c2ccc(F)cc2)c1-c1ccncc1,inhibition (MAPK14 (human) [2]): 54%
–,O=C(NCCCc1[nH]nc(-c2ccc(F)cc2)c1-c1ccncc1)NC1CN2CCC1CC2 (configuration not stated),pIC50 (MAPK14 (human) [2]): < 6.00
–,Cc1noc(C)c1C(=O)N[C@@H](C)c1[nH]nc(-c2ccc(F)cc2)c1-c1ccncc1,inhibition (MAPK14 (human) [2]): 32%
–,C[C@@H](NC(=O)c1ccccn1)c1[nH]nc(-c2ccc(F)cc2)c1-c1ccncc1,inhibition (MAPK14 (human) [2]): 24%
